Laboratory results taken from ChEMBL document CHEMBL1201862, “PubChem BioAssay data set” (2004).
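Results reflect a 48-hour exposure of cells in 96-well plates to compound at five concentrations. GI50 = concentration required for 50% inhibition of growth.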 Activity calls are given as the source filed them. No stated cut-off is given here; in the data, active = GI50 up to about 1.1 µM and inactive = higher.

Legend:
Experiment in all cases: growth of human tumour cells (NCI), 48 h
BT-549 = test system: BT-549
RPMI-8226 = test system: RPMI-8226
MDA-MB-435 = test system: MDA-MB-435
SK-MEL-5 = test system: SK-MEL-5
DU-145 = test system: DU-145
MOLT-4 = test system: MOLT-4
T47D = test system: T47D
OVCAR-4 = test system: OVCAR-4
A498 = test system: A498
SK-OV-3 = test system: SK-OV-3
CCRF-CEM = test system: CCRF-CEM
SF-295 = test system: SF-295
COLO 205 = test system: COLO 205
HCC 2998 = test system: HCC 2998
SF-539 = test system: SF-539
LOX IMVI = test system: LOX IMVI
NCI-H460 = test system: NCI-H460

SMILES	GI50 (BT-549)	GI50 (RPMI-8226)	GI50 (MDA-MB-435)	GI50 (SK-MEL-5)	GI50 (DU-145)	GI50 (MOLT-4)	GI50 (T47D)	GI50 (OVCAR-4)	GI50 (A498)	GI50 (SK-OV-3)	GI50 (CCRF-CEM)	GI50 (SF-295)	GI50 (COLO 205)	GI50 (HCC 2998)	GI50 (SF-539)	GI50 (LOX IMVI)	GI50 (NCI-H460)
O=C(O)c1cc2ccccc2c(/N=N/c2ccccc2)c1O	20.8 µM (inactive)	21.6 µM (inactive)	15.1 µM (inactive)	5.47 µM (inactive)	14.5 µM (inactive)	92.7 µM (inactive)	38.1 µM (inactive)	> 100 µM (inactive)	33.7 µM (inactive)	41.9 µM (inactive)	38.5 µM (inactive)	12.4 µM (inactive)	17.9 µM (inactive)	–	–	–	–
Cc1nc(C)c(C(=O)NNC(N)=S)cc1C(=O)NNC(N)=S	> 100 µM (inactive)	> 100 µM (inactive)	> 100 µM (inactive)	> 100 µM (inactive)	> 100 µM (inactive)	> 100 µM (inactive)	> 100 µM (inactive)	> 100 µM (inactive)	–	> 100 µM (inactive)	–	> 100 µM (inactive)	> 100 µM (inactive)	> 100 µM (inactive)	> 100 µM (inactive)	> 100 µM (inactive)	> 100 µM (inactive)
CCOC(=O)CCC(C(=O)OCC)n1nnc2ccc(Nc3c(C)[n+]([O-])c4cc(Cl)ccc4[n+]3[O-])cc21 (configuration not stated)	26.5 µM (inactive)	20.9 µM (inactive)	19.2 µM (inactive)	–	30.4 µM (inactive)	38.2 µM (inactive)	19.5 µM (inactive)	18.3 µM (inactive)	–	99.5 µM (inactive)	29.1 µM (inactive)	68.1 µM (inactive)	19.3 µM (inactive)	16.8 µM (inactive)	19.9 µM (inactive)	17.7 µM (inactive)	35.3 µM (inactive)
C(=C\c1cc(-c2ccc3ccccc3n2)nc2ccc3ccccc3c12)/c1ccc2ccccc2n1	> 100 µM (inactive)	> 100 µM (inactive)	> 100 µM (inactive)	> 100 µM (inactive)	> 100 µM (inactive)	> 100 µM (inactive)	–	> 100 µM (inactive)	> 100 µM (inactive)	> 100 µM (inactive)	> 100 µM (inactive)	> 100 µM (inactive)	> 100 µM (inactive)	> 100 µM (inactive)	62.2 µM (inactive)	> 100 µM (inactive)	> 100 µM (inactive)
O=C(NCc1ccc(Cl)cc1)c1cc2sccc2nc1C(F)(F)F	39.9 µM (inactive)	> 100 µM (inactive)	> 100 µM (inactive)	49.7 µM (inactive)	–	> 100 µM (inactive)	> 100 µM (inactive)	19.8 µM (inactive)	–	34 µM (inactive)	> 100 µM (inactive)	28 µM (inactive)	> 100 µM (inactive)	–	27.7 µM (inactive)	–	–
CCOP(=O)(Nc1ccccc1P(=O)(OCC)OCC)OCC	> 100 µM (inactive)	> 100 µM (inactive)	> 100 µM (inactive)	> 100 µM (inactive)	> 100 µM (inactive)	> 100 µM (inactive)	–	> 100 µM (inactive)	> 100 µM (inactive)	> 100 µM (inactive)	–	> 100 µM (inactive)	> 100 µM (inactive)	> 100 µM (inactive)	–	–	> 100 µM (inactive)
COc1ccc2c(ccc3c(COC(=O)NC(C)C)c(COC(=O)NC(C)C)n(C)c32)c1	11.9 µM (inactive)	10 µM (inactive)	7.74 µM (inactive)	13.2 µM (inactive)	–	3.34 µM (inactive)	7.52 µM (inactive)	12.4 µM (inactive)	7.33 µM (inactive)	16.7 µM (inactive)	3.21 µM (inactive)	8.79 µM (inactive)	10.8 µM (inactive)	–	5.82 µM (inactive)	4.62 µM (inactive)	0.414 µM (active)
CCCCOC(=O)C(NC(C(=O)OCCCC)c1cc(C(C)(C)C)c(O)c(C(C)(C)C)c1)c1cc(C(C)(C)C)c(O)c(C(C)(C)C)c1 (configuration not stated)	> 100 µM (inactive)	31.5 µM (inactive)	> 100 µM (inactive)	> 100 µM (inactive)	> 100 µM (inactive)	75 µM (inactive)	> 100 µM (inactive)	> 100 µM (inactive)	> 100 µM (inactive)	> 100 µM (inactive)	73.8 µM (inactive)	> 100 µM (inactive)	> 100 µM (inactive)	–	> 100 µM (inactive)	> 100 µM (inactive)	–
CN1CCN(c2ccc3nc(-c4cc(O)c5c(nc(CO)n5C)c4O)[nH]c3n2)CC1	> 100 µM (inactive)	22.6 µM (inactive)	18.7 µM (inactive)	–	43.8 µM (inactive)	17.6 µM (inactive)	18.7 µM (inactive)	19.5 µM (inactive)	–	> 100 µM (inactive)	18.8 µM (inactive)	> 100 µM (inactive)	15.9 µM (inactive)	39.9 µM (inactive)	17.4 µM (inactive)	17.1 µM (inactive)	55.6 µM (inactive)
Cc1cc(C)c2c(-c3ccccc3)cc(=O)[nH]c2c1	–	> 100 µM (inactive)	> 100 µM (inactive)	> 100 µM (inactive)	> 100 µM (inactive)	> 100 µM (inactive)	> 100 µM (inactive)	> 100 µM (inactive)	> 100 µM (inactive)	> 100 µM (inactive)	> 100 µM (inactive)	> 100 µM (inactive)	> 100 µM (inactive)	> 100 µM (inactive)	–	> 100 µM (inactive)	> 100 µM (inactive)
CN1/C(=C/C=C/C=C/C=C2C(=O)c3ccccc3C2=O)C(C)(C)c2ccccc21	24 µM (inactive)	6.55 µM (inactive)	54.5 µM (inactive)	18.5 µM (inactive)	43.4 µM (inactive)	–	6.76 µM (inactive)	75.3 µM (inactive)	23.8 µM (inactive)	39.4 µM (inactive)	> 100 µM (inactive)	35.5 µM (inactive)	26.6 µM (inactive)	–	26.1 µM (inactive)	40.3 µM (inactive)	53.5 µM (inactive)
CC(CCCCNC(=O)OC(C)(C)C)NC(=O)NC(C)CCCCNC(=O)OC(C)(C)C (configuration not stated)	> 100 µM (inactive)	–	> 100 µM (inactive)	30 µM (inactive)	> 100 µM (inactive)	41.8 µM (inactive)	83 µM (inactive)	81.5 µM (inactive)	> 100 µM (inactive)	> 100 µM (inactive)	6.21 µM (inactive)	63.5 µM (inactive)	56.6 µM (inactive)	–	–	> 100 µM (inactive)	> 100 µM (inactive)
COc1cc(OCc2ccc3nc(-c4ccccc4)c(Cl)nc3c2)cc(OC)c1OC	–	> 100 µM (inactive)	> 100 µM (inactive)	20.5 µM (inactive)	> 100 µM (inactive)	> 100 µM (inactive)	93.8 µM (inactive)	> 100 µM (inactive)	32.5 µM (inactive)	–	> 100 µM (inactive)	37.4 µM (inactive)	> 100 µM (inactive)	> 100 µM (inactive)	31.2 µM (inactive)	> 100 µM (inactive)	90.2 µM (inactive)
CN1CCN([C@H]2C[C@H]3[C@@H]4CC=C5C[C@@H](N6CCCC6)CC[C@]5(C)[C@H]4CC[C@]3(C)[C@H]2O)CC1	95.5 µM (inactive)	24.9 µM (inactive)	26.1 µM (inactive)	18.8 µM (inactive)	–	23.7 µM (inactive)	> 100 µM (inactive)	> 100 µM (inactive)	46.1 µM (inactive)	> 100 µM (inactive)	38.6 µM (inactive)	48.4 µM (inactive)	12.6 µM (inactive)	33.3 µM (inactive)	16.2 µM (inactive)	19.6 µM (inactive)	71.8 µM (inactive)
O=[N+]([O-])c1cccc(/C=N/NC2=CS(=O)(=O)C=C2)c1	78.7 µM (inactive)	> 100 µM (inactive)	> 100 µM (inactive)	> 100 µM (inactive)	> 100 µM (inactive)	> 100 µM (inactive)	> 100 µM (inactive)	> 100 µM (inactive)	> 100 µM (inactive)	> 100 µM (inactive)	> 100 µM (inactive)	> 100 µM (inactive)	> 100 µM (inactive)	–	> 100 µM (inactive)	> 100 µM (inactive)	> 100 µM (inactive)
CCSC1=N/C(=C\c2ccco2)C(Nc2ccc(C)cc2)=N1	–	> 100 µM (inactive)	> 100 µM (inactive)	> 100 µM (inactive)	> 100 µM (inactive)	> 100 µM (inactive)	–	–	> 100 µM (inactive)	> 100 µM (inactive)	> 100 µM (inactive)	> 100 µM (inactive)	> 100 µM (inactive)	–	–	> 100 µM (inactive)	–
CSCCC(C(=O)O)N(C)C (configuration not stated)	> 100 µM (inactive)	> 100 µM (inactive)	> 100 µM (inactive)	> 100 µM (inactive)	> 100 µM (inactive)	–	> 100 µM (inactive)	> 100 µM (inactive)	> 100 µM (inactive)	> 100 µM (inactive)	> 100 µM (inactive)	> 100 µM (inactive)	> 100 µM (inactive)	–	> 100 µM (inactive)	> 100 µM (inactive)	> 100 µM (inactive)
CCCCCCCCCCCCc1ccc(S(=O)(=O)O)cc1	–	> 100 µM (inactive)	> 100 µM (inactive)	> 100 µM (inactive)	> 100 µM (inactive)	> 100 µM (inactive)	> 100 µM (inactive)	> 100 µM (inactive)	26.8 µM (inactive)	> 100 µM (inactive)	> 100 µM (inactive)	> 100 µM (inactive)	> 100 µM (inactive)	> 100 µM (inactive)	> 100 µM (inactive)	49.5 µM (inactive)	> 100 µM (inactive)
